Values quoted from earlier work in US9808460B2, “Controlled release auris sensory cell modulator compositions and methods for the treatment of otic disorders” (Otonomy, Inc., priority 2008, dated 2017).

Test system: ototoxic effects of cisplatin
Details: in certain instances

NCCCNCCSP(=O)(O)O [Amifostine]
doses needed to protect against or ameliorate the ototoxic effects of cisplatin: ≥ 40 mg/kg
